# Experimental data: US20160159814A1, “GLYCINE TRANSPORTER INHIBITOR” (TAISHO PHARMACEUTICAL CO., LTD., priority 2013, published 2016)
# Molecular target: T1, human type 1 glycine transporter (GlyT1) (Homo sapiens, UniProt P48067)
# T1 construct: T98G cells (glioma cells) expressing human type 1 glycine transporter (GlyT1) were used; endogenous in cells; host or cells: T98G cells (human glioma cells)
# T1 sequence (P48067 1-706): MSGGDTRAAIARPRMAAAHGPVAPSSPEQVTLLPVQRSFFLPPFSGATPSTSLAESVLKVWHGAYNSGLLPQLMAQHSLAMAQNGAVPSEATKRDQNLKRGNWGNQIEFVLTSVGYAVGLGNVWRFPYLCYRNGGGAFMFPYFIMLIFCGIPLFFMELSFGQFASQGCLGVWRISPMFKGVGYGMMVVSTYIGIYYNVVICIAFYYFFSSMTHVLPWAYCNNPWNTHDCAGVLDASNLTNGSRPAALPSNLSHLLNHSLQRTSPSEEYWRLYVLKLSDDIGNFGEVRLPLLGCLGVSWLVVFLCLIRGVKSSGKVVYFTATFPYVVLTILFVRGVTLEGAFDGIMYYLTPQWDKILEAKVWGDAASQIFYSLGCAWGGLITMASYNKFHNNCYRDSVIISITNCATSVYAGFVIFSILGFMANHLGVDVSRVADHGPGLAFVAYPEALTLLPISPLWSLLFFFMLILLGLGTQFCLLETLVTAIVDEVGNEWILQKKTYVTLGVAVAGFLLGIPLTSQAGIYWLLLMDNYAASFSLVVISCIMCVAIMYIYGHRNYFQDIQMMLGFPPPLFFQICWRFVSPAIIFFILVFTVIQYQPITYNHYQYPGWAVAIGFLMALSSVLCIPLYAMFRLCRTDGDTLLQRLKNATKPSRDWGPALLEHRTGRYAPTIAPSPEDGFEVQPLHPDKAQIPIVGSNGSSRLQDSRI
# Assay: Glycine uptake inhibition experiment ([3H] glycine uptake in T98G cells expressing GlyT1)
# Type: cell-based
# Conditions: glycine uptake inhibition
# Method in brief: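 T98G glioma cells expressing human GlyT1 were pretreated 10 min with compound in HEPES buffer pH 7.4 (0.2% BSA), then incubated with compound plus 250 nM final [3H]glycine for 15 min at room temperature. Intracellular radioactivity was counted after NaOH lysis; 10 μM ALX5407 defined non-specific uptake. IC50 came from 10^−9–10^−5 M curves.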
row,SMILES,IC50 [nM]
1,"COc1cccc(CN2C(=O)C(F)(F)c3c([C@H](C)O)cccc32)n1 [Compound 68, 3,3-difluoro-4-[(1S)-1-hydroxyethyl]-1-[(6-methoxypyridin-2-yl)methyl]-1,3-dihydro-2H-indol-2-one]",76
2,"C[C@H](O)c1cccc2c1C(F)(F)C(=O)N2Cc1ccnc(-n2cncn2)c1 [Compound 69, 3,3-difluoro-4-[(1S)-1-hydroxyethyl]-1-{[2-(1H-1,2,4-triazol-1-yl)pyridin-4-yl]methyl}-1,3-dihydro-2H-indol-2-one]",45
3,"C[C@H](O)c1cccc2c1C(F)(F)C(=O)N2Cc1cncc(C#N)c1 [Compound 70, 5-({3,3-difluoro-4-[(1S)-1-hydroxyethyl]-2-oxo-2,3-dihydro-1H-indol-1-yl}methyl)pyridine-3-carbonitile]",91
4,"COc1cncc(CN2C(=O)C(F)(F)c3c([C@H](C)O)cccc32)c1 [Compound 71, 3,3-difluoro-4-[(1S)-1-hydroxyethyl]-1-[(5-methoxypyridin-3-yl)methyl]-1,3-dihydro-2H-indol-2-one]",160
5,"C[C@H](O)c1cccc2c1C(F)(F)C(=O)N2Cc1cncc(Cl)n1 [Compound 72, 1-[(6-chloropyrazin-2-yl)methyl]-3,3-difluoro-4-[(1S)-1-hydroxyethyl]-1,3-dihydro-2H-indol-2-one]",12
6,"C[C@H](O)c1cccc2c1C(F)(F)C(=O)N2Cc1nc2ccccc2s1 [Compound 73, 1-(1,3-benzothiazol-2-ylmethyl)-3,3-difluoro-4-[(1S)-1-hydroxyethyl]-1,3-dihydro-2H-indol-2-one]",37
7,"C[C@H](O)c1cccc2c1C(F)(F)C(=O)N2Cc1cnc2ccccc2c1 [Compound 74, 3,3-difluoro-4-[(1S)-1-hydroxyethyl)-1-(quinolin-3-ylmethyl)-1,3-dihydro-2H-indol-2-one]",39
8,"C[C@H](O)c1cccc2c1C(F)(F)C(=O)N2Cc1nc2ccccc2n1C [Compound 75, 3,3-difluoro-4-[(1S)-1-hydroxyethyl]-1-[(1-methyl-1H-benzimidazol-2-yl)methyl]-1,3-dihydro-2H-indol-2-one]",34
9,"C[C@H](O)c1cccc2c1C(F)(F)C(=O)N2Cc1ccc2nonc2c1 [Compound 76, 1-(2,1,3-benzoxadiazol-5-ylmethyl)-3,3-difluoro-4-[(1S)-1-hydroxyethyl]-1,3-dihydro-2H-indol-2-one]",8.7
10,"C[C@H](O)c1cccc2c1C(F)(F)C(=O)N2Cc1ccc2ccccc2n1 [Compound 77, 3,3-difluoro-4-[(1S)-1-hydroxyethyl]-1-(quinolin-2-ylmethyl)-1,3-dihydro-2H-indol-2-one]",37
11,"C[C@H](O)c1cccc2c1C(F)(F)C(=O)N2Cc1ccc2ncccc2n1 [Compound 78, 3,3-difluoro-4-[(1S)-1-hydroxyethyl]-1-(1,5-naphthyridin-2-ylmethyl)-1,3-dihydro-2H-indol-2-one]",320
12,"Cc1nc2ccccc2nc1CN1C(=O)C(F)(F)c2c([C@H](C)O)cccc21 [Compound 79, 3,3-difluoro-4-[(1S)-1-hydroxyethyl]-1-[(3-methylquinoxalin-2-yl)methyl]-1,3-dihydro-2H-indol-2-one]",31
13,"C[C@H](O)c1cccc2c1C(F)(F)C(=O)N2Cc1ccsc1 [Compound 80, 3,3-difluoro-4-[(1S)-1-hydroxyethyl]-1-(thiophen-3-ylmethyl)-1,3-dihydro-2H-indol-2-one]",28
14,"C[C@H](O)c1cccc2c1C(F)(F)C(=O)N2Cc1nc2ccccc2o1 [Compound 81, 1-(1,3-benzoxazol-2-ylmethyl)-3,3-difluoro-4-[(1S)-1-hydroxyethyl]-1,3-dihydro-2H-indol-2-one]",30
15,"C[C@H](O)c1cccc2c1C(F)(F)C(=O)N2Cc1cccc(C(F)F)n1 [Compound 82, 1-{[6-(difluoromethyl)pyridin-2-yl]methyl}-3,3-difluoro-4-[(1S)-1-hydroxyethyl]-1,3-dihydro-2H-indol-2-one]",44
16,"C[C@H](O)c1cccc2c1C(F)(F)C(=O)N2Cc1cnc2ccccc2n1 [Compound 83, 3,3-difluoro-4-[(1S)-1-hydroxyethyl]-1-(quinoxalin-2-ylmethyl)1,3-dihydro-2H-indol-2-one]",30
17,"C[C@H](O)c1cccc2c1C(F)(F)C(=O)N2Cc1cncc(-n2nccn2)c1 [Compound 84, 3,3-difluoro-4-[(1S)-1-hydroxyethyl]-1-{[5-(2H-1,2,3-triazol-2-yl)pyridin-3-yl]methyl}-1,3-dihydro-2H-indol-2-one]",35
18,"C[C@H](O)c1cccc2c1C(F)(F)C(=O)N2Cc1cc(C#N)ccn1 [Compound 85, 2-({3,3-difluoro-4-[(1S)-1-hydroxyethyl]-2-oxo-2,3-dihydro-1H-indol-1-yl}methyl)pyridine-4-carbonitrile]",420
19,"C[C@H](O)c1cccc2c1C(F)(F)C(=O)N2Cc1ccnc(C(F)(F)F)c1 [Compound 86, 3,3-difluoro-4-[(1S)-1-hydroxyethyl]-1-{[2-(trifluoromethyl)pyridin-4-yl]methyl}-1,3-dihydro-2H-indol-2-one]",24

# Next, values leading:
row,IC50 [nM],SMILES
1,1500,"C[C@H](O)c1cccc2c1C(F)(F)C(=O)N2Cc1cncc(-n2ccnn2)c1 [Compound 87, 3,3-difluoro-4-[(1S)-1-hydroxyethyl]-1-{[5-(1H-1,2,3-triazol-1-yl)pyridin-3-yl]methyl}-1,3-dihydro-2H-indol-2-one]"
2,87,"C[C@H](O)c1cccc2c1C(F)(F)C(=O)N2Cc1nc2ccccc2[nH]1 [Compound 88, 1-(1H-benzimidazol-2-ylmethyl)-3,3-difluoro-4-[(1S)-1-hydroxyethyl)-1,3-dihydro-2H-indol-2-one]"
3,190,"C[C@H](O)c1cccc2c1C(F)(F)C(=O)N2Cc1n[nH]c2ccccc12 [Compound 89, 3,3-difluoro-4-[(1S)-1-hydroxyethyl]-1-(1H-indazol-3-ylmethyl)-1,3-dihydro-2H-indol-2-one]"
4,46,"C[C@H](O)c1c(Cl)ccc2c1C(F)(F)C(=O)N2Cc1cncc(Cl)c1 [Compound 90, 5-chloro-1-[(5-chloropyridin-3-yl)methyl]-3,3-difluoro-4-[(1S)-1-hydroxyethyl]-1,3-dihydro-2H-indol-2-one]"
5,130,"Cc1nc(CN2C(=O)C(F)(F)c3c([C@H](C)O)cccc32)oc1C [Compound 91, 1-[(4,5-dimethyl-1,3-oxazol-2-yl)methyl]-3,3-difluoro-4-[(1S)-1-hydroxyethyl]-1,3-dihydro-2H-indol-2-one]"
6,69,"C[C@H](O)c1cccc2c1C(F)(F)C(=O)N2Cc1nc2cc(F)ccc2o1 [Compound 92, 3,3-difluoro-1-[(5-fluoro-1,3-benzoxazol-2-yl)methyl]-4-[(1S)-1-hydroxyethyl]-1,3-dihydro-2H-indol-2-one]"
7,54,C[C@H](O)c1cccc2c1C(F)(F)C(=O)N2Cc1c2ccccc2nn1C [Compound 93]
8,6,"C[C@H](O)c1cccc2c1C(F)(F)C(=O)N2Cc1ccc(C(F)(F)F)o1 [Compound 94, 3,3-difluoro-4-[(1S)-1-hydroxyethyl]-1-{[5-(trifluoromethyl)furan-2-yl]methyl}-1,3-dihydro-2H-indol-2-one]"
9,1000,"O=C1N(Cc2cncc(Cl)c2)c2ccc(Cl)c([C@@H](O)C(F)(F)F)c2C1(F)F [Compound 95, 5-chloro-1-[(5-chloropyridin-3-yl)methyl]-3,3-difluoro-4-[(1R)-2,2,2-trifluoro-1-hydroxyethyl]-1,3-dihydro-2H-indol-2-one]"
10,51,"C[C@H](O)c1cccc2c1C(F)(F)C(=O)N2Cc1cc(C(F)(F)F)ccn1 [Compound 96, 3,3-difluoro-4-[(1S)-1-hydroxyethyl]-1-{[4-(trifluoromethyl)pyridin-2-yl]methyl}-1,3-dihydro-2H-indol-2-one]"
11,91,"C[C@H](O)c1cccc2c1C(F)(F)C(=O)N2Cc1cc(F)ccn1 [Compound 97, 3,3-difluoro-1-[(4-fluoropyridin-2-yl)methyl]-4-[(1S)-1-hydroxyethyl]-1,3-dihydro-2H-indol-2-one]"
12,34,"C[C@H](O)c1cccc2c1C(F)(F)C(=O)N2Cc1nc2ccccc2[nH]c1=O [Compound 98, 3-({3,3-difluoro-4-[(1S)-1-hydroxyethyl]-2-oxo-2,3-dihydro-1H-indol-1-yl}methyl) quinoxalin-2(1H)-one]"
13,48,"C[C@H](O)c1cccc2c1C(F)(F)C(=O)N2Cc1cc2ccccc2c(=O)[nH]1 [Compound 99, 3-({3,3-difluoro-4-[(1S)-1-hydroxyethyl]-2-oxo-2,3-dihydro-1H-indol-1-yl}methyl) isoquinolin-1(2H)-one]"
14,29,"C[C@H](O)c1cccc2c1C(F)(F)C(=O)N2Cc1cc2ccccc2c(=O)n1C [Compound 100, 3-({3,3-difluoro-4-[(1S)-1-hydroxyethyl]-2-oxo-2,3-dihydro-1H-indol-1-yl}methyl)-2-methylisoquinolin-1(2H)-one]"
